PubChem BioAssay AID2060489 (Molecular Pharmacology Branch, DTP, NCI, 2025)
Where “and” joins values, the source holds several entries; their conditions need not be identical. Equal entries are not always repeated.

Tested on: 922993-354-T-J3-PDC complex spheroids, viability
Test: Anticancer human tumor 922993-354-T-J3-PDC patient-derived endometrial carcinoma cell line growth inhibition [GQUAD]
Conditions: for viability, T/C: stronger effect = lower value
Description: DNA G-quadruplex Stabilizer Agents in Combinations in Complex Spheroids
A high-throughput screen of multi-cell type tumor spheroids was designed to identify active combinations of DNA G-quadruplex stabilizer agents and targeted small molecules. Complex spheroids include a stromal component modeled by human endothelial cells (HUVEC) and fibroblasts modeled by human mesenchymal stem cells (MSCs). The concentration ranges selected for each drug and investigational agent were based upon clinically achievable concentrations if the clinical Cmax of the agent was known.
Compounds. The drugs and investigational agents: pidnarulex (CX-5461; NSC782164), APTO-253 (NSC789042), BRACO-19 (NSC847499), peposertib (NSC802822), ceralasertib (NSC780249), elimusertib (NSC800525), camonsertib (NSC841442), AZD-1390 (NSC803789), olaparib (NSC753686), talazoparib (NSC767125), ART-558 (NSC835418), sotorasib (NSC818433), MRTX-1133 (NSC836407), SN-38 (NSC673596), topotecan (NSC609699), etoposide (NSC141540), doxorubicin (NSC123127), gemcitabine (NSC613327), 5-fluorouracil (NSC19893), paclitaxel (NSC125973), vemurafenib (NSC761431), panobinostat (NSC761190), R-306465 (JNJ-16241199; NSC773264), adavosertib (NSC754352), TP-3654 (NSC805149), carboplatin (NSC241240), KSQ-4279 (NSC840948), and staurosporine (NSC755774) were obtained from the National Cancer Institute (NCI) Developmental Therapeutics Program Chemical Repository (34). The FDA-approved anticancer drug set is available from the NCI Developmental Therapeutics Program. […] The stock solutions were prepared in dimethyl sulfoxide (DMSO, Sigma-Aldrich, St. Louis, MO, cat. D2650) at 800-fold the tested concentration and stored at -70 degrees C prior to their use. All drugs and investigational agents were tested over a range starting from a high concentration at or near the clinical Cmax and decreasing in half-log increments. If the clinical Cmax for an agent had not been determined, the highest concentration tested was 10 microM.
2.3 Cell Culture. All cells were maintained in an incubator at 37 degrees C and 5% CO2 with 95% humidity. The PDC lines were cultured according to standard operating procedures established by the NCI PDMR. All PDCs were thawed and cultured in Matrigel-coated flasks prepared with a working solution of 1X Ham's F-12 nutrient mix, without supplementation (Invitrogen, cat. 11765054), 100 U/mL penicillin-streptomycin (Invitrogen, cat. 15140122), and 2.5% Matrigel (Corning Inc., cat. 354248) for the first three passages. The 857933-349-R-J2-PDC line was cultured in 6C/Colon 1B media, which includes advanced DMEM/F-12 (Thermo Fisher Scientific, cat. 12634028), 10 mM HEPES (Thermo Fisher Scientific, cat. 15630080), 1X GlutaMAX supplement (Thermo Fisher Scientific, cat. 35050061), 0.1 mg/mL primocin (InvivoGen, cat. ant-pm-2), 10% defined fetal bovine serum, heat inactivated (HyClone Laboratories Inc., cat. SH30070.03HI), 50% L-WRN conditioned media (ATCC, cat. CRL-3276), 1.25 mM N-Acetyl-L-cysteine (Sigma-Aldrich, cat. A9165), 10 mM nicotinamide (Sigma-Aldrich, cat. N0636), 1X B-27 supplement (Thermo Fisher Scientific, cat. 17504044), 1X N-2 supplement (Thermo Fisher Scientific, cat. 17502048), 10 microM Y-27632 dihydrochloride (Tocris Bioscience, cat. 1254), and 50 ng/mL human EGF recombinant protein (Thermo Fisher Scientific, cat. PHG0311). The 485176-168-R4-J1-PDC line was cultured in Panc media, which includes all 6C/Colon 1B media components plus 100 ng/mL human FGF-10 (Thermo Fisher Scientific, cat. 100-26), 500 nM SB-431542 (Selleckchem, cat. S1067), and gastrin (Tocris, cat. 3006).
[…]

[1] = curve of first compound, second compound 0.0316 µM
[2] = curve of first compound, second compound 0.1 µM
[3] = curve of first compound, second compound 0.316 µM
[4] = curve of first compound, second compound 1 µM
[5] = curve of first compound, second compound 3.16 µM
[6] = curve of first compound, second compound 10 µM
[7] = second compound 0.0316 µM, first compound 0.0316 µM
[8] = second compound 0.0316 µM, first compound 0.316 µM
[9] = second compound 0.1 µM, first compound 0.0316 µM
[10] = second compound 0.1 µM, first compound 0.316 µM
[11] = second compound 0.316 µM, first compound 0.0316 µM
[12] = second compound 0.316 µM, first compound 0.316 µM
[13] = second compound 1 µM, first compound 0.0316 µM
[14] = second compound 1 µM, first compound 0.316 µM
[15] = second compound 3.16 µM, first compound 0.0316 µM
[16] = second compound 3.16 µM, first compound 0.316 µM
[17] = second compound 10 µM, first compound 0.0316 µM
[18] = second compound 10 µM, first compound 0.316 µM
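Also: spheroids exposed to compounds for seven days.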
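For viability, T/C in this document: 100% = DMSO vehicle control viability.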

SMILES: CCCS(=O)(=O)Nc1ccc(F)c(C(=O)c2c[nH]c3ncc(-c4ccc(Cl)cc4)cc23)c1F + Cc1[nH]c2ccc(F)cc2c1-c1nc2c3cccnc3c3ncccc3c2[nH]1
- IC50 [1]: > 10 µM
- IC50 [2]: > 10 µM
- IC50 [3]: > 10 µM
- IC50 [4]: > 10 µM
- IC50 [5]: > 10 µM
- IC50 [6]: > 10 µM
- viability, T/C [7]: 113%
- viability, T/C (second compound 0.0316 µM, first compound 0.1 µM): 101%
- viability, T/C [8]: 78.5%
- viability, T/C (second compound 0.0316 µM, first compound 1 µM): 69.4%
- viability, T/C (second compound 0.0316 µM, first compound 3.16 µM): 77.3%
- viability, T/C (second compound 0.0316 µM, first compound 10 µM): 68.4%
- viability, T/C [9]: 119%
- viability, T/C (second compound 0.1 µM, first compound 0.1 µM): 99.2%
- viability, T/C [10]: 75.7%
- viability, T/C (second compound 0.1 µM, first compound 1 µM): 81.2%
- viability, T/C (second compound 0.1 µM, first compound 3.16 µM): 76.9%
- viability, T/C (second compound 0.1 µM, first compound 10 µM): 57.1%
- viability, T/C [11]: 101%
- viability, T/C (second compound 0.316 µM, first compound 0.1 µM): 82.4%
- viability, T/C [12]: 81.5%
- viability, T/C (second compound 0.316 µM, first compound 1 µM): 77.2%
- viability, T/C (second compound 0.316 µM, first compound 3.16 µM): 78.2%
- viability, T/C (second compound 0.316 µM, first compound 10 µM): 56.2%
- viability, T/C [13]: 93%
- viability, T/C (second compound 1 µM, first compound 0.1 µM): 83.5%
- viability, T/C [14]: 61.9%
- viability, T/C (second compound 1 µM, first compound 1 µM): 92.9%
- viability, T/C (second compound 1 µM, first compound 3.16 µM): 82%
- viability, T/C (second compound 1 µM, first compound 10 µM): 56.7%
- viability, T/C [15]: 91.2%
- viability, T/C (second compound 3.16 µM, first compound 0.1 µM): 98.6%
- viability, T/C [16]: 82.5%
- viability, T/C (second compound 3.16 µM, first compound 1 µM): 87.5%
- viability, T/C (second compound 3.16 µM, first compound 3.16 µM): 76.4%
- viability, T/C (second compound 3.16 µM, first compound 10 µM): 60.9%
- viability, T/C [17]: 96.9%
- viability, T/C (second compound 10 µM, first compound 0.1 µM): 99.7%
- viability, T/C [18]: 85.4%
- viability, T/C (second compound 10 µM, first compound 1 µM): 81.4%
- viability, T/C (second compound 10 µM, first compound 3.16 µM): 76.9%
- viability, T/C (second compound 10 µM, first compound 10 µM): 64%

SMILES: CC(C)(O)C1CCC(Nc2ccc3ncc(-c4cccc(C(F)(F)F)c4)n3n2)CC1 (stereo unspecified)
- viability, T/C (compound 0.0316 µM): 106% and 88.2% and 93.2%
- viability, T/C (compound 0.1 µM): 81% and 82.6% and 81.6%
- viability, T/C (compound 0.316 µM): 89.6% and 84.6% and 88.7%
- viability, T/C (compound 1 µM): 82.9% and 101% and 90.8%
- viability, T/C (compound 3.16 µM): 78.8% and 68.7% and 81.9%
- viability, T/C (compound 10 µM): 79.6% and 68% and 98.6%
- IC50 (curve of compound): > 10 µM

SMILES: Cc1[nH]c2ccccc2c1CCNCc1ccc(/C=C/C(=O)NO)cc1 + Cc1cnc(CNC(=O)c2c(=O)c3ccc(N4CCCN(C)CC4)nc3n3c2sc2ccccc23)cn1
- IC50 [1]: > 0.316 µM
- IC50 [2]: 0.109 µM
- IC50 [3]: < 0.000999 µM
- IC50 [4]: < 0.000999 µM
- IC50 [5]: < 0.000999 µM
- IC50 [6]: < 0.000999 µM
- viability, T/C (second compound 0.0316 µM, first compound 0.000999 µM): 81.9%
- viability, T/C (second compound 0.0316 µM, first compound 0.00316 µM): 86.5%
- viability, T/C (second compound 0.0316 µM, first compound 0.00999 µM): 108%
- viability, T/C [7]: 72.6%
- viability, T/C (second compound 0.0316 µM, first compound 0.0999 µM): 73.5%
- viability, T/C [8]: 54.3%
- viability, T/C (second compound 0.1 µM, first compound 0.000999 µM): 55.7%
- viability, T/C (second compound 0.1 µM, first compound 0.00316 µM): 64.3%
- viability, T/C (second compound 0.1 µM, first compound 0.00999 µM): 57.6%
- viability, T/C [9]: 55.8%
- viability, T/C (second compound 0.1 µM, first compound 0.0999 µM): 47%
- viability, T/C [10]: 45.4%
- viability, T/C (second compound 0.316 µM, first compound 0.000999 µM): 54.2%
- viability, T/C (second compound 0.316 µM, first compound 0.00316 µM): 33.7%
- viability, T/C (second compound 0.316 µM, first compound 0.00999 µM): 44.2%
- viability, T/C [11]: 34.7%
- viability, T/C (second compound 0.316 µM, first compound 0.0999 µM): 40.9%
- viability, T/C [12]: 30.8%
- viability, T/C (second compound 1 µM, first compound 0.000999 µM): 42.6%
- viability, T/C (second compound 1 µM, first compound 0.00316 µM): 46.7%
- viability, T/C (second compound 1 µM, first compound 0.00999 µM): 38.9%
- viability, T/C [13]: 34.9%
- viability, T/C (second compound 1 µM, first compound 0.0999 µM): 33.9%
- viability, T/C [14]: 31.2%
- viability, T/C (second compound 3.16 µM, first compound 0.000999 µM): 40.9%
- viability, T/C (second compound 3.16 µM, first compound 0.00316 µM): 48.6%
- viability, T/C (second compound 3.16 µM, first compound 0.00999 µM): 41.6%
- viability, T/C [15]: 41.7%
- viability, T/C (second compound 3.16 µM, first compound 0.0999 µM): 29.9%
- viability, T/C [16]: 24.6%
- viability, T/C (second compound 10 µM, first compound 0.000999 µM): 36%
- viability, T/C (second compound 10 µM, first compound 0.00316 µM): 40.3%
- viability, T/C (second compound 10 µM, first compound 0.00999 µM): 44.8%
- viability, T/C [17]: 30%
- viability, T/C (second compound 10 µM, first compound 0.0999 µM): 38.9%
- viability, T/C [18]: 6.92%
